In article PMC8348780, “Preparation and Evaluation of Novel Folate Isonitrile ^99mTc Complexes as Potential Tumor Imaging Agents to Target Folate Receptors” (Molecules, 2021) one finds Liver uptake and Solubility of ligand data, which are given here for 1 molecule.

For one series, the system named is KB tumor-bearing mice. The series can be described thus: Biodistribution study in KB tumor-bearing mice. It is filed as in vivo, BALB/c nude mice. As to conditions: 2 h p.i., labeled under weak acid condition (before the pH was changed to weakly alkaline). The procedure:
The biodistribution experiments were divided into normal groups and inhibition groups (n = 3), in which the inhibition group was injected with inhibitor (about 4 × 10^4 µg/kg) 30 min in advance. The KB tumor-bearing mice were decapitated 30 and 120 min after the tail vein injection of 0.1 mL labeled solution (about 7.4 × 10^4 Bq). The heart, liver, lung, kidney, spleen, stomach, bone, muscle, intestine, tumor, blood, and other related tissues and organs were wiped clean and weighed, and the radioactivity count was measured. Each tissue per gram of injection dose (%ID/g) was calculated.

Series [1] can be described thus: Solubility of the ligand in the labeling solution. Particulars: labeling solution under weak acid. It is filed as physicochemical.

In the series with KB tumor-bearing mice, `[C-]#[N+]CCCCCC(=O)NCCNC(=O)CC[C@H](NC(=O)c1ccc(NCc2cnc3nc(N)[nH]c(=O)c3n2)cc1)C(=O)O` [CN5FA, N^2-(4-(((2-Amino-4-oxo-3,4-dihydropteridin-6-yl)methyl)amino)benzoyl)-N^5-(2-(6-isocyanohexanamido)ethyl)-L-glutamine] displayed a Liver uptake of 52.35 ± 1.19 %ID/g. Further, the Solubility of ligand result in series [1] is on record as “poor”.
